Laboratory results reported in patent publication US20240117431A1, “STEM-CELL BASED BIOMARKER DISCOVERY” (THE REGENTS OF THE UNIVERSITY OF CALIFORNIA, priority 2020, published 2024).

Key:
[1] = test system: co-culture of mCherry HEK cells and GFP-TgUPRT variant HEK cells; test: Co-culture specificity, dot blot of biotinylated total RNA (CuAAC or IEDDA); type: cell-based; conditions: 5 hours
Method: Co-culture of HEK cells containing GFP or mCherry expression plasmids: HEK293 (5×105) cells seeded in 6-well plate. Thirty-six hour post seeding, HEK cells were transfected with 1 μg of single plasmid containing EGFP, mCherry, EGFP-TgUPRT-WT, or EGFP-TgUPRT-Mut. Twenty-four hour post transfection, transiently transfected HEK cells were trypsinized and seeded into a 5 cm plate. Equal amounts of cells (approximately 2×106 in total) where 1×10^6 cells containing GFP or GFP-TgUPRT plasmids and 1×10^6 cells containing mCherry construct) were co-cultured. Three co-culture conditions are Condition (A): mCherry and EGFP, Condition (B): mCherry and EGFP-WT-TgUPRT, and Condition (C): mCherry and EGFP-3×MT-TgUPRT (pKN-CMV-EGFP-TgUPRT-Mut16 or -Mut17). Sixteen hours post seeding, the co-cultures were treated with 5EU and 5VU for 5 hours at 200 μM and 500 μM final concentration, respectively. Cell imaging was performed to assess the overall distribution of green and red cells in each co-culture. Once imaging was done, cells were harvested and subjected to RNA isolation. Total RNA isolated from the co-culture was subjected to biotinylation by two click methods: (1) CuAAC to assess 5EU incorporation in RNA and (2) IEDDA to assess 5VU incorporation in RNA. Subsequently, biotinylated RNA was subjected to dot blot analysis. […]

HEK cells = test: Trypan blue cell viability / proliferation; type: cell-based; conditions: triple mutant TgUPRT + 5VU 200 μM, 5, 16, 24h, versus untreated cells, FIG. 11
Method: Equal amount HEK cells (2×10^5) were seeded in a 6-well plate with 2 mL media. Twenty-four hour […], HEK cells were transfected with 1 μg empty plasmid (No GFP nor TgUPRT), double (2×MT) or triple (3×MT) TgUPRT mutants. 5VU was added to cells at 200 μM final concentration for 5, 16 and 24h treatment so that by the time cells were assayed with Trypan blue, they underwent 48h post transfection. DMSO (carrier) treatment (negative control) was done for 24h. Cells were stained with 0.04% Trypan blue for 5 minutes and subjected to cell counting using Countess II FL (Invitrogen, USA). Per condition, counting was done with n=2× biological and 3× technical replicates.

SMILES | incorporation into RNA in the absence of TgUPRT (co-culture dot blot) ([1]; 200 μM 5EU with 500 μM 5VU) | cell viability, Trypan blue (HEK cells) | incorporation into RNA mediated by GFP-3×MT-TgUPRT (co-culture dot blot) ([1]; 500 μM 5VU with 200 μM 5EU)
C#Cc1c[nH]c(=O)[nH]c1=O [compound 1, 5-ethynylpyrimidine-2,4(1H,3H)-dione] | detectable signal |  | 
C=Cc1c[nH]c(=O)[nH]c1=O [compound 2, 5-Vinylpyrimidine-2,4(1H,3H)-dione] |  | non-significant differences to untreated cells | substantially
